Measurements taken from ChEMBL document CHEMBL5365420, “Kinetics, Thermodynamics, and Structural Effects of Quinoline-2-Carboxylates, Zinc-Binding Inhibitors of New Delhi Metallo-β-lactamase-1 Re-sensitizing Multidrug-Resistant Bacteria for Carbapenems” (J Med Chem, 2023).

What was measured:
[1] = Inhibition of IMP-1 (unknown origin) expressed in Escherichia coli BL21-DE3 incubated for 15 mins by absorbance based microplate reader analysis; set-up: species or system Bacteria
[2] = biological target: T1, 72 kDa type IV collagenase (Homo sapiens, UniProt P08253); assay: Inhibition of human recombinant MMP-2 CD at 10 uM using OMNIMMP as substrate incubated for 30 mins by fluorescence based analysis relative to control
Target sequence in this assay (P08253 110-660 limits assumed): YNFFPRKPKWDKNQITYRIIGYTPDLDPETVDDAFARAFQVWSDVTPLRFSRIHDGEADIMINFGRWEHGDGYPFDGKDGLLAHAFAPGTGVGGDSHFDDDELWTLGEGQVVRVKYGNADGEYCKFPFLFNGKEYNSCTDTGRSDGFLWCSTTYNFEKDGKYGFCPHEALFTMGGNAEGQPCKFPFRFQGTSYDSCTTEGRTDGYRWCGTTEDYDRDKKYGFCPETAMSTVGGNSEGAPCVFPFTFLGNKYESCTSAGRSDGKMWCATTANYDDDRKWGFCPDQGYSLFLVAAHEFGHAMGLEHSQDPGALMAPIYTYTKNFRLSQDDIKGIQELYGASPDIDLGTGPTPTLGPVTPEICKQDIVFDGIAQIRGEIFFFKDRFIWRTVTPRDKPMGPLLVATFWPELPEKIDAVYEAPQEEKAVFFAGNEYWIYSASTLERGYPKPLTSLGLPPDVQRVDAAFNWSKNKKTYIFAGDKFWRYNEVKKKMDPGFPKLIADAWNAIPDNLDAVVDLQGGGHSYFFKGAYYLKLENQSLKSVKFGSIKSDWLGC

[3] = Inhibition of VIM-2 (unknown origin) incubated for 15 mins by absorbance based microplate reader analysis; set-up: species or system Bacteria
[4] = Inhibition of GIM1 (unknown origin) incubated for 15 mins by absorbance based microplate reader analysis; set-up: species or system Bacteria
[5] = biological target: Histone deacetylase 1 (Homo sapiens) (UniProt Q13547); assay: Inhibition of C-terminal 6His/FLAG-tagged human recombinant full-length HDAC1 (1 to 482(end) residues) at 10 uM using Boc-Lys-(Ac)-AMC as substrate incubated for 10 mins followed by substrate addition measured after 1 hr by fluorescence based analysis relative to control; details: time 70.0 min
[6] = biological target: Carbonic anhydrase 2 (Homo sapiens) (UniProt P00918); assay: Inhibition of human CA2 at 10 uM using pNPA as substrate preincubated for 15 mins followed by substrate by absorbance based analysis relative to control
[7] = Selectivity ratio of Ki for human recombinant MMP-2 CD to Ki for C-terminal 6His-tagged full length NDM-1 (unknown origin)
[8] = biological target: T1, 72 kDa type IV collagenase; assay: Binding affinity to human recombinant MMP-2 CD assessed as inhibition constant using OMNIMMP as substrate incubated for 30 mins by fluorescence based analysis
Target sequence in this assay (P08253 whole entry): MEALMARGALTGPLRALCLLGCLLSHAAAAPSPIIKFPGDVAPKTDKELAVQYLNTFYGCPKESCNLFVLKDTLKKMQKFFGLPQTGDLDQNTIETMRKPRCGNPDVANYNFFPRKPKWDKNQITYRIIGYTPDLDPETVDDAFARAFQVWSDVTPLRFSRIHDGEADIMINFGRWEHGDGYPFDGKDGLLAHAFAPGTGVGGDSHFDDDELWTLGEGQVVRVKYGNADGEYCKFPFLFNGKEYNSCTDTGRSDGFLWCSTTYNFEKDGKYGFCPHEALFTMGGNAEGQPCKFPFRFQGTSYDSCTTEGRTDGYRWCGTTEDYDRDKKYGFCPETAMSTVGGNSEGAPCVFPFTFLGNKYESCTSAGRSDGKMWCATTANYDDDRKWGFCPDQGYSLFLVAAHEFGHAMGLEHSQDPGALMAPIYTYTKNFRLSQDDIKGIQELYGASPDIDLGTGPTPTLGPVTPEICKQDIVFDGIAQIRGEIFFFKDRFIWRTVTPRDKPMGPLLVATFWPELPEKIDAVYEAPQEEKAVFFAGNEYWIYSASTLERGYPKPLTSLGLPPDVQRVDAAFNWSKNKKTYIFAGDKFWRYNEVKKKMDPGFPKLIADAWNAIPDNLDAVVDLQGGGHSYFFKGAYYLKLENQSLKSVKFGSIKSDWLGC

[9] = system: Escherichia coli; assay: Antibacterial activity against clinical isolate Escherichia coli K12 J53-ST10 684/18 expressing blaNDM-1 co-expressing blaCMY-2 and blaOXA-10 assessed as meropenem MIC at 40 uM measured after 20 hrs by broth microdilution assay (reference value: 10.65 mg/L); assay type: functional
[10] = system: Escherichia coli; assay: Antibacterial activity against clinical isolate Escherichia coli K12 J53-ST10 684/18 expressing blaNDM-1 co-expressing blaCMY-2 and blaOXA-10 assessed as meropenem MIC at 80 uM measured after 20 hrs by broth microdilution assay (reference value: 21.3 mg/L); assay type: functional
[11] = system: Escherichia coli; assay: Antibacterial activity against clinical isolate Escherichia coli K12 J53-ST10 696/17 expressing blaNDM-1 co-expressing blaCMY-4 assessed as meropenem MIC at 40 uM measured after 20 hrs by broth microdilution assay (reference value: 10.65 mg/L); assay type: functional
[12] = system: Escherichia coli; assay: Antibacterial activity against clinical isolate Escherichia coli K12 J53-ST10 696/17 expressing blaNDM-1 co-expressing blaCMY-4 assessed as meropenem MIC at 80 uM measured after 20 hrs by broth microdilution assay (reference value: 21.3 mg/L); assay type: functional
[13] = system: Escherichia coli; assay: Antibacterial activity against clinical isolate Escherichia coli K12 J53-ST10 618/15 expressing blaNDM-1 assessed as meropenem MIC at 40 uM measured after 20 hrs by broth microdilution assay (reference value: 10.65 mg/L); assay type: functional
[14] = system: Escherichia coli; assay: Antibacterial activity against clinical isolate Escherichia coli K12 J53-ST10 618/15 expressing blaNDM-1 assessed as meropenem MIC at 80 uM measured after 20 hrs by broth microdilution assay (reference value: 21.3 mg/L); assay type: functional
[15] = system: Escherichia coli; assay: Antibacterial activity against clinical isolate Escherichia coli K12 J53-ST10 699/15 expressing blaNDM-1 assessed as meropenem MIC at 40 uM measured after 20 hrs by broth microdilution assay (reference value: 10.65 mg/L); assay type: functional
[16] = system: Escherichia coli; assay: Antibacterial activity against clinical isolate Escherichia coli K12 J53-ST10 699/15 expressing blaNDM-1 assessed as meropenem MIC at 80 uM measured after 20 hrs by broth microdilution assay (reference value: 21.3 mg/L); assay type: functional
[17] = system: Acinetobacter baumannii; assay: Antibacterial activity against clinical isolate Acinetobacter baumannii IC 19/09 expressing blaNDM-1 co-expressing blaOXA-64 assessed as meropenem MIC at 40 uM measured after 20 hrs by broth microdilution assay (reference value: 10.65 mg/L); assay type: functional
[18] = system: Acinetobacter baumannii; assay: Antibacterial activity against clinical isolate Acinetobacter baumannii IC 19/09 expressing blaNDM-1 co-expressing blaOXA-64 assessed as meropenem MIC at 80 uM measured after 20 hrs by broth microdilution assay (reference value: 21.3 mg/L); assay type: functional
[19] = system: Escherichia coli; assay: Antibacterial activity against clinical isolate Escherichia coli ST1012/10 expressing blaNDM-1 co-expressing blaTEM-1/blaCTX-M-15/blaOXA-1 and blaOXA-2 assessed as meropenem MIC at 40 uM measured after 20 hrs by broth microdilution assay (reference value: 10.65 mg/L); assay type: functional
[20] = system: Escherichia coli; assay: Antibacterial activity against clinical isolate Escherichia coli ST1012/10 expressing blaNDM-1 co-expressing blaTEM-1/blaCTX-M-15/blaOXA-1 and blaOXA-2 assessed as meropenem MIC at 80 uM measured after 20 hrs by broth microdilution assay (reference value: 21.3 mg/L); assay type: functional
[21] = system: Klebsiella pneumoniae; assay: Antibacterial activity against clinical isolate Klebsiella pneumoniae ST1493/10 expressing blaNDM-1 co-expressing blaCMY-2like/blaTEM-1/blaCTX-M-15/blaSHV-28/blaOXA-1 and blaOXA-9 assessed as meropenem MIC at 40 uM measured after 20 hrs by broth microdilution assay (reference value: 10.65 mg/L); assay type: functional
[22] = system: Klebsiella pneumoniae; assay: Antibacterial activity against clinical isolate Klebsiella pneumoniae ST1493/10 expressing blaNDM-1 co-expressing blaCMY-2like/blaTEM-1/blaCTX-M-15/blaSHV-28/blaOXA-1 and blaOXA-9 assessed as meropenem MIC at 80 uM measured after 20 hrs by broth microdilution assay (reference value: 21.3 mg/L); assay type: functional
[23] = system: Klebsiella pneumoniae; assay: Antibacterial activity against clinical isolate Klebsiella pneumoniae 50/11 expressing blaNDM-1 co-expressing blaTEM-1/blaSHV-28/blaTEM-1/blaCTX-M-15 and blaOXA-1 assessed as meropenem MIC at 40 uM measured after 20 hrs by broth microdilution assay (reference value: 10.65 mg/L); assay type: functional
[24] = system: Klebsiella pneumoniae; assay: Antibacterial activity against clinical isolate Klebsiella pneumoniae 50/11 expressing blaNDM-1 co-expressing blaTEM-1/blaSHV-28/blaTEM-1/blaCTX-M-15 and blaOXA-1 assessed as meropenem MIC at 80 uM measured after 20 hrs by broth microdilution assay (reference value: 21.3 mg/L); assay type: functional
[25] = system: Klebsiella pneumoniae; assay: Antibacterial activity against clinical isolate Klebsiella pneumoniae 50/20 expressing blaNDM-5 co-expressing blaTEM-1 and blaSHV-1 assessed as meropenem MIC at 40 uM measured after 20 hrs by broth microdilution assay (reference value: 10.65 mg/L); assay type: functional
[26] = system: Klebsiella pneumoniae; assay: Antibacterial activity against clinical isolate Klebsiella pneumoniae 50/20 expressing blaNDM-5 co-expressing blaTEM-1 and blaSHV-1 assessed as meropenem MIC at 80 uM measured after 20 hrs by broth microdilution assay (reference value: 21.3 mg/L); assay type: functional
[27] = system: Escherichia coli; assay: Antibacterial activity against clinical isolate Escherichia coli 371/12 expressing blaNDM-7 co-expressing blaCTX-M-15 and blaOXA-1 assessed as meropenem MIC at 40 uM measured after 20 hrs by broth microdilution assay (reference value: 10.65 mg/L); assay type: functional
[28] = system: Escherichia coli; assay: Antibacterial activity against clinical isolate Escherichia coli 371/12 expressing blaNDM-7 co-expressing blaCTX-M-15 and blaOXA-1 assessed as meropenem MIC at 80 uM measured after 20 hrs by broth microdilution assay (reference value: 21.3 mg/L); assay type: functional
[29] = system: Klebsiella pneumoniae; assay: Antibacterial activity against clinical isolate Klebsiella pneumoniae ST23213/19 expressing blaNDM-1 co-expressing blaOXA-48/blaSHV-11/blaCTX-M-15 and blaOXA-1 assessed as meropenem MIC at 40 uM measured after 20 hrs by broth microdilution assay (reference value: 10.65 mg/L); assay type: functional
[30] = system: Klebsiella pneumoniae; assay: Antibacterial activity against clinical isolate Klebsiella pneumoniae ST23213/19 expressing blaNDM-1 co-expressing blaOXA-48/blaSHV-11/blaCTX-M-15 and blaOXA-1 assessed as meropenem MIC at 80 uM measured after 20 hrs by broth microdilution assay (reference value: 21.3 mg/L); assay type: functional
[31] = system: Klebsiella pneumoniae; assay: Antibacterial activity against clinical isolate Klebsiella pneumoniae 62/07 expressing blaVIM-19 co-expressing blaSHV-1/blaCTX-M-14 and blaCMY-4 assessed as meropenem MIC at 40 uM measured after 20 hrs by broth microdilution assay (reference value: 10.65 mg/L); assay type: functional
[32] = system: Klebsiella pneumoniae; assay: Antibacterial activity against clinical isolate Klebsiella pneumoniae 62/07 expressing blaVIM-19 co-expressing blaSHV-1/blaCTX-M-14 and blaCMY-4 assessed as meropenem MIC at 80 uM measured after 20 hrs by broth microdilution assay (reference value: 21.3 mg/L); assay type: functional
[33] = biological target: Metallo-beta-lactamase type 2 (Bacteria, UniProt C7C422)
Sequence of Metallo-beta-lactamase type 2 (C7C422 whole entry): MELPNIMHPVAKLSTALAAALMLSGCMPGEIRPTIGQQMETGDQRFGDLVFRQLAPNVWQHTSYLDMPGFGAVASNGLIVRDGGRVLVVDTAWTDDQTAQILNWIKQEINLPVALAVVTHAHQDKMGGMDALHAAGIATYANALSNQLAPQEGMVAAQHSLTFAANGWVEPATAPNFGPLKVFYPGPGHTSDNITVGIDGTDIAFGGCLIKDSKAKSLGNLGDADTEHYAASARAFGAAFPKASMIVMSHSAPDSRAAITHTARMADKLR
Description: Inhibition of C-terminal 6His-tagged full length NDM-1 (unknown origin) expressed in Escherichia coli BL21-DE3 using nitrocefin as substrate incubated for 15 mins followed by substrate addition by absorbance based microplate reader analysis

Sequence of Histone deacetylase 1 (Homo sapiens) (Q13547 whole entry): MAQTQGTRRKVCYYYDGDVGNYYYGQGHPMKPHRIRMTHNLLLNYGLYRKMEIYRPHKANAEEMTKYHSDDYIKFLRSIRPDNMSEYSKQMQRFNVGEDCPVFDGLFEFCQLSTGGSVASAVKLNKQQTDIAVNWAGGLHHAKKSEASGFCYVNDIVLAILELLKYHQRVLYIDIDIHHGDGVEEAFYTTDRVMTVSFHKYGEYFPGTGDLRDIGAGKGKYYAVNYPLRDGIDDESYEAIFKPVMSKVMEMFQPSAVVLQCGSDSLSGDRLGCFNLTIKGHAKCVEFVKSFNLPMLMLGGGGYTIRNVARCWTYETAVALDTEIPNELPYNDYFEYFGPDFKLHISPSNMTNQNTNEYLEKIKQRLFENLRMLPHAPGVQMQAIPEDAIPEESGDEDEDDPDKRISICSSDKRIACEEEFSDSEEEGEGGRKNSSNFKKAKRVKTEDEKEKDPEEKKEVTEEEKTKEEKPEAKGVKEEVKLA

In the case of CS(=O)(=O)Nc1cccc2ccc(C(=O)O)nc12, the IC50 [1] is reported as 7.27 µM, the inhibition [2] is reported as > 90% and the IC50 [3] is reported as 0.79 µM. For the same compound, the IC50 [4] was 50.1 µM, the inhibition [5] was < 5% and the inhibition [6] was < 5%. The Ratio Ki [7] was 5, the Ki [8] was 4.08 µM and the MIC [9] was ≤ 0.125 µg/mL. The MIC [10] was ≤ 0.125 µg/mL, the MIC [11] was ≤ 0.125 µg/mL and the MIC [12] was ≤ 0.125 µg/mL. For the same compound, the MIC [13] was ≤ 0.125 µg/mL, the MIC [14] was ≤ 0.125 µg/mL and the MIC [15] was ≤ 0.125 µg/mL. The MIC [16] was ≤ 0.125 µg/mL, the MIC [17] was 4 µg/mL and the MIC [18] was 2 µg/mL. The MIC [19] was ≤ 0.125 µg/mL, the MIC [20] was ≤ 0.125 µg/mL and the MIC [21] was 4 µg/mL. For the same compound, the MIC [22] was 2 µg/mL, the MIC [23] was ≤ 0.125 µg/mL and the MIC [24] was ≤ 0.125 µg/mL. For the same compound, the MIC [25] was ≤ 0.125 µg/mL, the MIC [26] was ≤ 0.125 µg/mL and the MIC [27] was 2 µg/mL. The MIC [28] was 0.25 µg/mL, the MIC [29] was 16 µg/mL and the MIC [30] was 16 µg/mL. It also gave an MIC [31] of 1 µg/mL, an MIC [32] of 0.5 µg/mL and an IC50 [33] of 1.64 µM.
